Like-named read-outs stand apart in the source and are kept apart here.
Key:
IKZF4 Eos = biological target: T1, IKZF4 Eos (Homo sapiens, UniProt Q96SW2+Q9H2S9); assay: Human Regulatory T Cell Reprogramming Assay (Eos); type: cell-based
T1 construct: Human CD4+ T cells were isolated from fresh healthy leukopaks; endogenous in cells; host or cells: FACS-sorted primary human regulatory T cells from healthy leukopaks
Method: Human CD4+ T cells were isolated from fresh healthy leukopaks (Stemcell Technologies) using the RosetteSep Human CD4+ T cell enrichment cocktail (Stemcell Technologies) and Ficoll density gradient centrifugation. Leukopaks were diluted with an equal volume of phosphate-buffered saline (PBS [Gibco]) supplemented with 2% fetal bovine serum (FBS, VWR Lifescience) and incubated with RosetteSep Human CD4^+ T cell enrichment cocktail for 20 minutes before layering on Ficoll-Paque Plus solution (GE Health Care). The cell-rich interface layer was harvested and washed twice with PBS supplemented with 2% FBS. Regulatory T cells were then isolated manually using the EasySep Human CD4^+CD1271WCD25^+ Regulatory T cell isolation kit (Stemcell Technologies) according to the manufacturer's instructions. Cells were rested overnight in Roswell Park Memorial Institute (RPMI) 1640 media (Gibco) supplemented with 10% FBS, Pen/Strep (Gibco), MEM-NEAA (Gibco), and sodium pyruvate (Gibco) in a humidified incubator (37° C., 5% CO2). Cells were then stained for CD4 (clone: RPA-T4, Biolegend), CD25 (clone: 2A3, BD Biosciences), and CD127 (clone: hIL-7R-M21, BD Biosciences). CD4+CD12710WCD25+ cells were sorted on a BD FACS Aria Fusion sorter to a purity of 95% or greater. Sorted cells were immediately used or cryopreserved for downstream assays.
Fresh or cryopreserved FACS-sorted CD4+CD127^lowCD25^+ Treg cells were cultured at 25,000-50,000 cells/well of 96-well round bottom plates in RPMI 1640 media (Gibco) supplemented with 10% FBS, Pen/Strep (Gibco), MEM-NEAA (Gibco), and sodium pyruvate (Gibco). Cells were stimulated with Treg Xpander beads (Thermo Fisher) at cells-to-beads ratio of 1:4 in the presence of 500 U/mL recombinant human IL-2 (Proleukin). Compounds were added at titrated doses and cells were incubated at 37° C., 5% CO2 for 12-13 days. Recombinant human IL-2 and compound were replenished every 2-3 days during the entire culture duration. On day 12 or 13, cells were restimulated with phorbol 12-myristate 13-acetate (PMA) and ionomycin in the presence of the protein transport inhibitors brefeldin A and monensin (eBioscience Cell Stimulation Cocktail plus protein transport inhibitors, 500×, Catalog number 00-4975-93) before proceeding with flow cytometry staining and analysis.
For flow cytometry staining, cells were washed twice with flow cytometry staining buffer (Thermo Fisher) and incubated in Human Tru-stain Fc block (Biolegend) for 10 minutes before adding eFluor780 viability dye (Thermo Fisher) and surface marker antibody cocktail for 30 minutes at 4° C. […] Data were analyzed using FlowJo version 10 and GraphPad Prism Software.
Table C-1 lists the maximum observed degradation of the IKZF2 protein and IKZF4 protein as measured in the Human Regulatory T Cell Reprogramming assay. […]

IKZF2 Helios = IKZF2 Helios (Homo sapiens, UniProt Q96SW2+Q9UKS7); assay: Human Regulatory T Cell Degradation Assay (Helios); type: cell-based; design: Human CD4+ T cells were isolated from fresh healthy leukopaks; endogenous in cells; host or cells: FACS-sorted primary human regulatory T cells from healthy leukopaks; conditions: human regulatory T cells, 20 h
Method: Cryopreserved human regulatory T cells were thawed in RPMI+10% FBS+20 ng/mL IL-2. After being spun at 1200 rpm for 5 mins, the cells were resuspended in RPMI+10% FBS+20 ng/ml and rested at 37° C. with 5% CO2 for 3 hours. The cells were then plated at 40,000 cells/well in 40 μL RPMI+10% FBS+20 ng/mL human IL-2 in a 384 well cell culture plate prior to using acoustic dispensing technology (ECHO 555) for adding compounds of interest. Cell cultures were incubated for 20 hours at 37° C. and 5% CO2. In order to facilitate analysis, cell cultures were spun down at 1200 rpm for 5 minutes and the supernatant was discarded using an EL406 plate washer. After washing three times with […] PBS, cell pellets were resuspended in 50 μL of […] viability staining solution (Life Technologies, Cat #L34975) and incubated for 30 minutes on ice protected from light. Cells were washed three times with 70 μL PBS+0.5% BSA using an EL406 plate washer. […] Stained cells were resuspended in 30 μL of flow cytometry staining buffer (PBS+0.5% BSA) and analyzed using an Intellicyt Ique Plus flow cytometer.
Table B-1 lists the maximum observed degradation of the IKZF1 protein and IKZF2 protein as measured in the Human Regulatory T Cell Degradation assay. […]

T1 sequence (Q9H2S9 whole entry): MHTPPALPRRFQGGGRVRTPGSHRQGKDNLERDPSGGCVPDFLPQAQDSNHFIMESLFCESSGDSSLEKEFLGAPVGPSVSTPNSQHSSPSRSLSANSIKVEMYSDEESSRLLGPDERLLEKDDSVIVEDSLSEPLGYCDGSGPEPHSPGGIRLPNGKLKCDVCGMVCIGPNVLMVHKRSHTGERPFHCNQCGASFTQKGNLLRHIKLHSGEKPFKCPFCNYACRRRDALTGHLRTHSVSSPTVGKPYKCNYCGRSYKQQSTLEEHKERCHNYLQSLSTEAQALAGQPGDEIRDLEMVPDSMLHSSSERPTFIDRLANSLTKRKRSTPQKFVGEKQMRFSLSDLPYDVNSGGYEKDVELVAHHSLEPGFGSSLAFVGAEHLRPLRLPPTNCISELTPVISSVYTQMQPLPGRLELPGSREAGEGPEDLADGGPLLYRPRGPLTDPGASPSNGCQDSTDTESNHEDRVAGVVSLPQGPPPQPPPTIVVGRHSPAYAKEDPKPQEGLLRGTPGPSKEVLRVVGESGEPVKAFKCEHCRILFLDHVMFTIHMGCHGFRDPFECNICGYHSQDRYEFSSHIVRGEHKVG
T1 sequence (Q96SW2 whole entry): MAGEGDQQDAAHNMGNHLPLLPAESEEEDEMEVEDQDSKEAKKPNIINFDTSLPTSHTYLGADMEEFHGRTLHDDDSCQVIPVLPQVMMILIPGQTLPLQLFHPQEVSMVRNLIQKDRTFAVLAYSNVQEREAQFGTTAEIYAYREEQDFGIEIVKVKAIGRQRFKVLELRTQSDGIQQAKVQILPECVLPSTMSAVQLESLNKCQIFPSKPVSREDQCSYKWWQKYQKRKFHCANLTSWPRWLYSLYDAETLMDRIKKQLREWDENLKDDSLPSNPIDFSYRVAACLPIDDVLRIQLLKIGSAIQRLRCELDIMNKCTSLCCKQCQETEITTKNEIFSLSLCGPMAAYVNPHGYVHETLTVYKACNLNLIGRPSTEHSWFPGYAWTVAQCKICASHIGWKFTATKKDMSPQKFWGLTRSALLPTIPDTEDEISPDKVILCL
T1 sequence (Q16531 whole entry partner): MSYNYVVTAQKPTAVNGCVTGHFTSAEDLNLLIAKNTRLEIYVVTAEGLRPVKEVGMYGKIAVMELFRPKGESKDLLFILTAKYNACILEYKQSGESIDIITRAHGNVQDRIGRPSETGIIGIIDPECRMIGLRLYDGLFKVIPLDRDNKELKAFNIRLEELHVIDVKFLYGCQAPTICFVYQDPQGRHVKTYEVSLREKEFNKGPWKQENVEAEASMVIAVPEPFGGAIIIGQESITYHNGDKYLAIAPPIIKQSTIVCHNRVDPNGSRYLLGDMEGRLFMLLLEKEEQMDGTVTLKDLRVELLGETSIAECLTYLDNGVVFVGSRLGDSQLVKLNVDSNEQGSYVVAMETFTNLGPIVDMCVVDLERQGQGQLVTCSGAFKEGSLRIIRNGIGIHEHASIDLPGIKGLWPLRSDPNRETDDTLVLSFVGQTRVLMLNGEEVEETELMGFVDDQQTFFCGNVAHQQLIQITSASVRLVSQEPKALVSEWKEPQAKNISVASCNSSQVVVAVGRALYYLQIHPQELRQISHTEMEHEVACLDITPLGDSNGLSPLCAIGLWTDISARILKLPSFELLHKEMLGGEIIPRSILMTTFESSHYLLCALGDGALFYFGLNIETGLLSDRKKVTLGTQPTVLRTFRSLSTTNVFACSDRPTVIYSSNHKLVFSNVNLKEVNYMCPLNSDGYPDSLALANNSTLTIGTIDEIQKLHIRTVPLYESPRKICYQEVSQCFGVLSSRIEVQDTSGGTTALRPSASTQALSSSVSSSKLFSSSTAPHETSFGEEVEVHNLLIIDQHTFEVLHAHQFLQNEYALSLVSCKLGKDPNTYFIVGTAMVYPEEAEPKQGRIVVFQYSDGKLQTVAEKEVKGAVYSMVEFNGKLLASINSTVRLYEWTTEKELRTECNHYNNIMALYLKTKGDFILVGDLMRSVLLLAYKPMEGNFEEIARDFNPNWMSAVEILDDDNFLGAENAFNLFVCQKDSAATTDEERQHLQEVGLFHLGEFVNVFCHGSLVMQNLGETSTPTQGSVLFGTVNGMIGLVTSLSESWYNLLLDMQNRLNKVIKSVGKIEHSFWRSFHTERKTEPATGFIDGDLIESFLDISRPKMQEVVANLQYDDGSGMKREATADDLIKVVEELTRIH
Chain of IKZF2 Helios (Q9UKS7 whole entry): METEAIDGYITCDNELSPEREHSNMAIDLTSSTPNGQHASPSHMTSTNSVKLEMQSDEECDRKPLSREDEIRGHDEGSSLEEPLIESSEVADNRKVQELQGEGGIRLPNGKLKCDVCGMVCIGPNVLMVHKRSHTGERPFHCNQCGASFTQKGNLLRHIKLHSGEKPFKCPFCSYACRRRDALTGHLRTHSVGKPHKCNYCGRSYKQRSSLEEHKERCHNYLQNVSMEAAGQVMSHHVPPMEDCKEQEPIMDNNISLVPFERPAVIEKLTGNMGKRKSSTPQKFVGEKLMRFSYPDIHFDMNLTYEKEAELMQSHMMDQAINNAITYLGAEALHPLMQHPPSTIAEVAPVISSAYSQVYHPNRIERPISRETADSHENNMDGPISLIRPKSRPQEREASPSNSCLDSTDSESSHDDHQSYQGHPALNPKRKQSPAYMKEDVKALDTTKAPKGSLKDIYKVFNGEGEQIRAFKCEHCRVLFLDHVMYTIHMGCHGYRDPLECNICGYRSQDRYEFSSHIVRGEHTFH
Chain of IKZF2 Helios (Q96SW2 whole entry): as the sequence (Q96SW2 whole entry) above
Chain of IKZF2 Helios (Q16531 whole entry partner): as the sequence (Q16531 whole entry partner) above

## Nc1nc(-c2ccc3c(c2F)CN(C2CCC(=O)NC2=O)C3=O)ccc1CN1CC(C2CCC(F)(F)CC2)C1 (stereo not drawn) [Example 1, 3-(5-(6-Amino-5-((3-(4,4-difluorocyclohexyl)azetidin-1-yl)methyl)pyridin-2-yl)-4-fluoro-1-oxoisoindolin-2-yl) piperidine-2,6-dione]
IKZF4 Eos; Regulatory T cell, human, text summary of Table C-1, read-out: decreased the level of IKZF4 (Eos)
  Dmax: ≥ 71%
IKZF4 Eos; Regulatory T cell, human Treg cells, stimulated, 12-13 days, read-out: IKZF4 Eos Maximum Observed Degradation
  Dmax: 71 to 72%
IKZF4 Eos; human Treg cells, stimulated, 12-13 days, concentration reducing protein level by 50% compared to DMSO alone
  DC50: 1.3 to 1.6 nM
IKZF4 Eos; summary table, Human T Regulatory Cell Reprogramming Assay (Table C-1), read-out: IKZF4 Eos max % deg. observed (Table E)
  Dmax: 71 to 72%
IKZF2 Helios; Regulatory T cell, read-out: IKZF2 Helios max % deg. observed
  Dmax: 96%
IKZF2 Helios; concentration reducing protein level by 50% compared to DMSO alone
  DC50: 0.1 nM

From US20260335299A1, “SUBSTITUTED OXOISOINDOLINYL PIPERIDINE-2,6-DIONE COMPOUND AS ANTICANCER AGENT” (BRISTOL-MYERS SQUIBB COMPANY, priority 2023, published 2026)
